Results published in ChEMBL document CHEMBL3580611, “Design, Synthesis, and Pharmacological Evaluation of Fused β-Homophenylalanine Derivatives as Potent DPP-4 Inhibitors” (ACS Med Chem Lett, 2015).

Assays:
[1] = Elimination half life in male Sprague-Dawley rat at 5 mg/kg, iv; assay type: ADME, organism-based; settings: in vivo, read-out: beta t1/2 (converted)
[2] = AUC (0 to infinity) in male Sprague-Dawley rat at 10 mg/kg, po; assay type: ADME, organism-based; set-up: dose 10 mg/kg, route oral, time infinity; settings: in vivo
[3] = Cmax in male Sprague-Dawley rat at 10 mg/kg, po; assay type: ADME, organism-based; set-up: dose 10 mg/kg, route oral; settings: in vivo
[4] = Cmax in male Sprague-Dawley rat at 5 mg/kg, iv; assay type: ADME, organism-based; set-up: dose 5 mg/kg, route intravenous; settings: in vivo
[5] = Tmax in male Sprague-Dawley rat at 10 mg/kg, po; assay type: ADME, organism-based; settings: in vivo
[6] = Elimination half life in male Sprague-Dawley rat at 10 mg/kg, po; assay type: ADME, organism-based; settings: in vivo, read-out: beta t1/2 (converted)
[7] = AUC (0 to infinity) in male Sprague-Dawley rat at 5 mg/kg, iv; assay type: ADME, organism-based; set-up: dose 5 mg/kg, time infinity, route intravenous; settings: in vivo
[8] = Plasma clearance in male Sprague-Dawley rat at 10 mg/kg, po; assay type: ADME, organism-based
[9] = Plasma clearance in male Sprague-Dawley rat at 5 mg/kg, iv; assay type: ADME, organism-based
[10] = tested on: Rattus norvegicus; test: Volume of distribution at steady state in male Sprague-Dawley rat at 10 mg/kg, po; assay type: ADME, organism-based; settings: in vivo
[11] = Volume of distribution at steady state in male Sprague-Dawley rat at 5 mg/kg, iv; assay type: ADME, organism-based; settings: in vivo, read-out: Vdss
[12] = Oral bioavailability in male Sprague-Dawley rat at 10 mg/kg; assay type: ADME, organism-based; settings: in vivo
[13] = target: Dipeptidyl peptidase 8 (Homo sapiens, UniProt Q6V1X1); test: Inhibition of human recombinant DPP8 using H-Gly-Pro-AMC substrate after 10 mins by fluorescence assay
[14] = target: Dipeptidyl peptidase 9 (Homo sapiens, UniProt Q86TI2); test: Inhibition of human recombinant DPP9 using H-Gly-Pro-AMC substrate after 10 mins by fluorescence assay
[15] = target: Voltage-gated inwardly rectifying potassium channel KCNH2 (Homo sapiens, UniProt Q12809); test: Inhibition of human ERG channel
[16] = Elimination half life in rat liver microsomes; assay type: ADME; settings: read-out: beta t1/2
[17] = tested on: Mus musculus; test: Anti-diabetic effect in ICR mouse assessed as plasma glucose lowering effect at 10 mg/kg, po treated 1 hr before 2.5 g/kg, po glucose load by Oral glucose tolerance test relative to control
[18] = tested on: Mus musculus; test: Anti-diabetic effect in ICR mouse assessed as plasma glucose lowering effect at 10 mg/kg, po treated 8 hrs before 2.5 g/kg, po glucose load measured after 8 hrs by Oral glucose tolerance test relative to control
[19] = Metabolic stability in rat liver microsome assessed as turnover after 84 mins; assay type: ADME; settings: liver microsomes, read-out: Drug metabolism

Chain of Dipeptidyl peptidase 9 (Q86TI2 whole entry): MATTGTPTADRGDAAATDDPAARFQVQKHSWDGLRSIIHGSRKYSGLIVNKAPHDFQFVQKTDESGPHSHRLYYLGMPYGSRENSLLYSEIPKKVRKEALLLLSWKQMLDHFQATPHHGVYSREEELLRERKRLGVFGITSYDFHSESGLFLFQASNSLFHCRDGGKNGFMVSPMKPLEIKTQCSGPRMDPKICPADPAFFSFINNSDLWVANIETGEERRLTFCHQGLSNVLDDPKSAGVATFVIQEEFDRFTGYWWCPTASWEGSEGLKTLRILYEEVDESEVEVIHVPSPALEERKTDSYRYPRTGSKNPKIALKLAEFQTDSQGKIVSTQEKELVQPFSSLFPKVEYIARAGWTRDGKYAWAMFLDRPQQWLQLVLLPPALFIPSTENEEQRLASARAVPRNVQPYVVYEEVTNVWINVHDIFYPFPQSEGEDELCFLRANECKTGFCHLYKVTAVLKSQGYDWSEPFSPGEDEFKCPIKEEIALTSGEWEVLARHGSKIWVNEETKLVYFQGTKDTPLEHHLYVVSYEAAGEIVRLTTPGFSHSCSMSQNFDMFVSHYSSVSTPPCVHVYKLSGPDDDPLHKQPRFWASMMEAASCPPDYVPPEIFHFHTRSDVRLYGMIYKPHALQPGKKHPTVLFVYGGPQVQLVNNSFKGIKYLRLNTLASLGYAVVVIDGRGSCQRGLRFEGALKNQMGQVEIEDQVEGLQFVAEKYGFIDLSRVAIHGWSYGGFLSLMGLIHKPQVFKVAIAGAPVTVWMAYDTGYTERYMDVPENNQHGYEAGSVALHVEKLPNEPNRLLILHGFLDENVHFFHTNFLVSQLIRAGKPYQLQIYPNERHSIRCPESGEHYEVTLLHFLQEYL
Chain of Dipeptidyl peptidase 8 (Q6V1X1 whole entry): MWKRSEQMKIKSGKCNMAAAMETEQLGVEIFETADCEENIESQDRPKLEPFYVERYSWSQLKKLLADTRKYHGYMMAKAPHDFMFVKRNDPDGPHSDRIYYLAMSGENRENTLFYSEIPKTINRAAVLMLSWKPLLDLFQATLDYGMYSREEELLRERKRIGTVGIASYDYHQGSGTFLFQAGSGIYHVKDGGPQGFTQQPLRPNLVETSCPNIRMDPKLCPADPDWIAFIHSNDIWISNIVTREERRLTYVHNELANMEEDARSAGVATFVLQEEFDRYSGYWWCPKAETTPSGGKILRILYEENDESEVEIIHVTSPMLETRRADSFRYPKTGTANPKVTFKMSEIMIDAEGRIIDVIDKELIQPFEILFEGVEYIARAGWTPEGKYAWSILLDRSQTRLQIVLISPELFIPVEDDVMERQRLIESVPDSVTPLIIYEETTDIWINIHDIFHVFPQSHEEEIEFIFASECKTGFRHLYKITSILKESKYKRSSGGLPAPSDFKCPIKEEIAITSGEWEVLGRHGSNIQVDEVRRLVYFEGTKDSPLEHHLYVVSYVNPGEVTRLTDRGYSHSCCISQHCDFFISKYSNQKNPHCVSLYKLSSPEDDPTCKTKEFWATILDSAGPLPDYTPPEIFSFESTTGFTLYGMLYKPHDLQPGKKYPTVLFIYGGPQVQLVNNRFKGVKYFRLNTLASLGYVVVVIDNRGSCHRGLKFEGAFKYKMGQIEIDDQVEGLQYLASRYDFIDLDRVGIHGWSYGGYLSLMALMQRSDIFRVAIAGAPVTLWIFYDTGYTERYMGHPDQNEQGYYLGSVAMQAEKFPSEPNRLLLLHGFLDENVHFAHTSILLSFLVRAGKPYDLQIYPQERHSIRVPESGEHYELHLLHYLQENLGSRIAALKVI
Chain of Voltage-gated inwardly rectifying potassium channel KCNH2 (Q12809 whole entry): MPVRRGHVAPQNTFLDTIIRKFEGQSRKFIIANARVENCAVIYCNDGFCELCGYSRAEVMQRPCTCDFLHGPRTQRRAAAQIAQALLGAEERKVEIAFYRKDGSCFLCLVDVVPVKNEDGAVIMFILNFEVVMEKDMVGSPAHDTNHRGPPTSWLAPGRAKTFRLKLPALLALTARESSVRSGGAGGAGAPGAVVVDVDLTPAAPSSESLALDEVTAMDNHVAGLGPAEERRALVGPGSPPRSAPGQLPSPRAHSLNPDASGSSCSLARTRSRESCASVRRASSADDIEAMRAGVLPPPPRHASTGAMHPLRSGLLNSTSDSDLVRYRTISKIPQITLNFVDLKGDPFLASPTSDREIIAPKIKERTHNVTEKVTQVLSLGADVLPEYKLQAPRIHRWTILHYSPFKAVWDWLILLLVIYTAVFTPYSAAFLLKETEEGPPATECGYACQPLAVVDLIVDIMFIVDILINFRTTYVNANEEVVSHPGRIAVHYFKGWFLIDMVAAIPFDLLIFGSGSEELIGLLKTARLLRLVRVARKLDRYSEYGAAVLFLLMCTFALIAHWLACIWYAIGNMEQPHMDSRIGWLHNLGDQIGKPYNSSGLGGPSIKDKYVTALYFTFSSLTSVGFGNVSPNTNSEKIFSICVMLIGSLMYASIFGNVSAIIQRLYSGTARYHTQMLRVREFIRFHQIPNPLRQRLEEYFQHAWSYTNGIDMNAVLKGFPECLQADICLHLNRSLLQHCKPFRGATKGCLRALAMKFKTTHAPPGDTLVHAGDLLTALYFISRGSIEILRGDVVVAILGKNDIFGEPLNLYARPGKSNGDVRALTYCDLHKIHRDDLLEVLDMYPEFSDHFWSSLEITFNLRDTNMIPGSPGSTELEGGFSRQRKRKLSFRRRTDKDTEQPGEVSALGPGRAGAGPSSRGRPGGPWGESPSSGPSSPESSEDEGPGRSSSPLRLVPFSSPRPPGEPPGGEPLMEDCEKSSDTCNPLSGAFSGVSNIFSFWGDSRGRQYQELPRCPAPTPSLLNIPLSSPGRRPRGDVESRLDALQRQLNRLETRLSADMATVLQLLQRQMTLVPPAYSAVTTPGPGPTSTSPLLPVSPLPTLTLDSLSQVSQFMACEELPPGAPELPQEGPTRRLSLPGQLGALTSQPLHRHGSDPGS

Row | SMILES | IC50 [13] | IC50 [14] | half-life [16] | inhibition (INH) [17] | inhibition (INH) [18] | also measured
1 | N[C@@H](CC(=O)N1CCn2c(nnc2C(F)(F)F)C1)[C@H]1CCc2cc(F)c(F)cc21 | > 10 µM | > 10 µM | 5.88 h | 57% | 24% | half-life [1]: 4.39 h; AUC(0-inf) [2]: 2850 ng·h/mL; Cmax [3]: 466 ng/mL; Cmax [4]: 1490 ng/mL; Tmax [5]: 0.55 h; half-life [6]: 5.11 h; AUC(0-inf) [7]: 2270 ng·h/mL; CL/F [8]: 59.1 mL/min/kg; clearance [9]: 37 mL/min/kg; Vdss [10]: 25.792 L/kg; Vd [11]: 14.2 L/kg; bioavailability [12]: 61%; IC50 [15]: > 20 µM
2 | N[C@@H](CC(=O)N1CC(=O)Nc2cc(F)c(F)cc2C1)[C@H]1CCc2cc(F)c(F)cc21 | > 10 µM | > 10 µM |  |  |  | 
3 | CN1C(=O)CN(C(=O)C[C@H](N)[C@H]2CCc3cc(F)c(F)cc32)Cc2ccccc21 | > 10 µM | > 10 µM |  | 29% | 38% | 
4 | CN1C(=O)CN(C(=O)C[C@H](N)[C@H]2CCc3cc(F)c(F)cc32)Cc2ccc(F)cc21 | > 10 µM | > 10 µM |  | 48% | 30% | 
5 | N[C@@H](CC(=O)N1CCn2c(nnc2C(F)(F)F)C1)Cc1cc(F)c(F)cc1F [SITAGLIPTIN] |  |  |  | 40% | 24% | 

Second part, led by results:

Row | IC50 [13] | IC50 [14] | half-life [16] | SMILES | inhibition (INH) [17] | inhibition (INH) [18] | also measured
6 | > 10 µM | > 10 µM | 1.4 h | N[C@@H](CC(=O)N1CC(=O)Nc2ccccc2C1)[C@H]1CCc2cc(F)c(F)cc21 | 34% | 35% | IC50 [15]: > 20 µM; metabolised at 1.4 h [19]: 50%
7 |  |  | 1.85 h | N[C@@H](CC(=O)N1CC(=O)Nc2cc(F)ccc2C1)[C@H]1CCc2cc(F)c(F)cc21 |  |  | 
